Active and inactive are the calls of the source. The calls are words filed in the database; no cut-off is given here.
Tests used:
[1] = target: Dihydrofolate reductase (Lactobacillus casei) (UniProt P00381); test: Inhibition of DCM-resistant Lactobacillus casei DHFR at 0.13 mM; details: Lacticaseibacillus casei
Enterococcus faecium [2] = test: Growth inhibition of Streptococcus faecium ATCC 8043 at 50 ng/ml by turbidimetric method; assay type: functional; details: read-out: GI
Dihydrofolate reductase = Dihydrofolate reductase (Lactobacillus casei, UniProt P00381); test: Inhibition of DCM-resistant Lactobacillus casei DHFR; design: species or system Lacticaseibacillus casei; details: read-out: I50
Dihydrofolate reductase, sequence (P00381 whole entry): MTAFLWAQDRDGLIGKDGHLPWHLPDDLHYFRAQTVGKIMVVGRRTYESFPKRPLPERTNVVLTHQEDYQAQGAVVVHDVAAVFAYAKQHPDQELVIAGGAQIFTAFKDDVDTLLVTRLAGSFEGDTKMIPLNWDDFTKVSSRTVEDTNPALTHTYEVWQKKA

Enterococcus faecium [3] = test: Growth inhibition of Streptococcus faecium ATCC 8043 at 5 ng/ml by turbidimetric method; assay type: functional; details: read-out: GI
[4] = target: Dihydrofolate reductase (Lactobacillus casei) (UniProt P00381); test: Activity at DCM-resistant Lactobacillus casei DHFR relative to 7,8-dihydrofolic acid; details: Lacticaseibacillus casei
[5] = target: Dihydrofolate reductase (Lactobacillus casei) (UniProt P00381); test: Activity at DCM-resistant Lactobacillus casei DHFR; details: Lacticaseibacillus casei

Dihydrofolate reductase (Lactobacillus casei), sequence (P00381 whole entry): as above

SMILES: Nc1nc(=O)c2nc(COc3ccc(C(=O)N[C@@H](CCC(=O)O)C(=O)O)cc3)cnc2[nH]1
- inhibition [1]: inactive
- inhibition of growth at 0.05 µg/mL (Enterococcus faecium [2]): 50%

SMILES: Nc1nc(N)c2nc(COc3ccc(C(=O)N[C@@H](CCC(=O)O)C(=O)O)cc3)cnc2n1
- IC50 (Dihydrofolate reductase): 4.5 nM
- inhibition of growth at 0.005 µg/mL (Enterococcus faecium [3]): 50%

SMILES: Nc1nc(=O)c2c([nH]1)NCC(CSc1ccc(C(=O)N[C@@H](CCC(=O)O)C(=O)O)cc1)=N2
- Activity [4]: 28%

SMILES: Nc1nc(=O)c2c([nH]1)NCC(COc1ccc(C(=O)N[C@@H](CCC(=O)O)C(=O)O)cc1)=N2
- inhibition [1]: inactive
- Activity [5]: inactive

Reference: ChEMBL document CHEMBL3272223, “Folate analogues altered in the C9-N10 bridge region. 10-Oxafolic acid and 10-oxaaminopterin” (J Med Chem, 1976)
